From ChEMBL document CHEMBL1201862, “PubChem BioAssay data set” (2004)
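All cell lines were grown in 96-well plates and treated with compound for 48 hours. GI50: concentration for 50% inhibition of growth.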 Activity calls are given as the source filed them. Rule as the data show it: active = GI50 up to about 1.1 µM and inactive = higher.

Columns and labels:
Test in all cases: inhibition of tumour cell growth, NCI panel, 48 h
HT-29 = test system: HT-29
U-251 = test system: U-251
SK-OV-3 = test system: SK-OV-3
HOP-92 = test system: HOP-92
SF-539 = test system: SF-539
COLO 205 = test system: COLO 205
CCRF-CEM = test system: CCRF-CEM
SF-295 = test system: SF-295
UO-31 = test system: UO-31
UACC-257 = test system: UACC-257
OVCAR-8 = test system: OVCAR-8
A498 = test system: A498
IGROV-1 = test system: IGROV-1
OVCAR-4 = test system: OVCAR-4
SN12C = test system: SN12C
HL-60 = test system: HL-60
K562 = test system: K562
CAKI-1 = test system: CAKI-1
MCF7 = test system: MCF7
MOLT-4 = test system: MOLT-4

SMILES | GI50 (HT-29) | GI50 (U-251) | GI50 (SK-OV-3) | GI50 (HOP-92) | GI50 (SF-539) | GI50 (COLO 205) | GI50 (CCRF-CEM) | GI50 (SF-295) | GI50 (UO-31) | GI50 (UACC-257) | GI50 (OVCAR-8) | GI50 (A498) | GI50 (IGROV-1) | GI50 (OVCAR-4) | GI50 (SN12C) | GI50 (HL-60) | GI50 (K562) | GI50 (CAKI-1) | GI50 (MCF7) | GI50 (MOLT-4)
COC1/C=C/C=C(/C)Cc2cc(O)c(Cl)c(c2)N(C)C(=O)CC(OC(=O)C(C)C)C2(C)OC2C(C)C2CC1(O)NC(=O)O2 (stereo not given) | < 0.01 µM (active) | < 0.01 µM (active) | < 0.01 µM (active) | 64.9 µM (inactive) | < 0.01 µM (active) | < 0.01 µM (active) | 0.394 µM (active) | < 0.01 µM (active) | < 0.01 µM (active) | 4.89 µM (inactive) | < 0.01 µM (active) | < 0.01 µM (active) | < 0.01 µM (active) | < 0.01 µM (active) | < 0.01 µM (active) | < 0.01 µM (active) | < 0.01 µM (active) | 21.2 µM (inactive) | < 0.01 µM (active) | < 0.01 µM (active)
c1ccc2cc3c(cc2c1)OP1(Oc2cccc4cccnc24)(O3)Oc2cc3ccccc3cc2O1 | 2.9 µM (inactive) | 6.85 µM (inactive) | 34.7 µM (inactive) | 3.57 µM (inactive) | 6.15 µM (inactive) | 6.32 µM (inactive) | 0.984 µM (active) | 4.67 µM (inactive) | 5.01 µM (inactive) | 2.69 µM (inactive) | 3.56 µM (inactive) | 18.2 µM (inactive) | 5.36 µM (inactive) | 3.61 µM (inactive) | 14.8 µM (inactive) | 1.63 µM (inactive) | 2.04 µM (inactive) | 4.88 µM (inactive) | 1.13 µM (inactive) | 1.57 µM (inactive)
CCOC(=O)C[n+]1ccc2c([nH]c3cc(OC)ccc32)c1C | > 100 µM (inactive) | > 77.4 µM (inactive) | > 100 µM (inactive) | > 70.3 µM (inactive) | > 100 µM (inactive) | > 71.6 µM (inactive) | > 96.2 µM (inactive) | 69.2 µM (inactive) | > 39.4 µM (inactive) | > 100 µM (inactive) | > 87.1 µM (inactive) | > 81.5 µM (inactive) | > 100 µM (inactive) | > 100 µM (inactive) | > 81.5 µM (inactive) | > 75.7 µM (inactive) | > 100 µM (inactive) | > 100 µM (inactive) | > 95.5 µM (inactive) | > 67 µM (inactive)
Cc1ccc(C(=O)N/N=C(\N=N\c2ccc([N+](=O)[O-])cc2)c2ccc(N(CCC#N)CCC#N)cc2C)cc1 | 34.3 µM (inactive) | > 100 µM (inactive) | > 100 µM (inactive) | > 100 µM (inactive) | > 100 µM (inactive) | 50 µM (inactive) | 39.8 µM (inactive) | 57.9 µM (inactive) | 86.7 µM (inactive) | 77.6 µM (inactive) | 28.1 µM (inactive) | 64.9 µM (inactive) | 66.8 µM (inactive) | 99.8 µM (inactive) | > 100 µM (inactive) | 30.2 µM (inactive) | 66.2 µM (inactive) | > 100 µM (inactive) | 83.6 µM (inactive) | 57.3 µM (inactive)
Cc1ccc(OP2(=O)Oc3ccc4ccccc4c3CN2c2ccc(Cl)cc2)cc1C (stereo not given) | > 100 µM (inactive) | > 100 µM (inactive) | > 100 µM (inactive) | > 100 µM (inactive) | > 100 µM (inactive) | > 100 µM (inactive) | > 100 µM (inactive) | > 100 µM (inactive) | > 100 µM (inactive) | > 100 µM (inactive) | > 100 µM (inactive) | > 100 µM (inactive) | > 100 µM (inactive) | > 100 µM (inactive) | > 100 µM (inactive) | > 100 µM (inactive) | > 100 µM (inactive) | > 100 µM (inactive) | > 100 µM (inactive) | > 100 µM (inactive)
O=[N+]([O-])c1cnccc1-n1nnc2ccccc21 | 28.3 µM (inactive) | 22.5 µM (inactive) | 23.3 µM (inactive) | 18.8 µM (inactive) | 20.5 µM (inactive) | 17.9 µM (inactive) | 19.8 µM (inactive) | 20.2 µM (inactive) | 19.4 µM (inactive) | 14.7 µM (inactive) | 17.7 µM (inactive) | 28.3 µM (inactive) | 13.9 µM (inactive) | 15.3 µM (inactive) | 16 µM (inactive) | 16 µM (inactive) | 20.7 µM (inactive) |  | 13.4 µM (inactive) | > 48 µM (inactive)
O=C1OCc2cccc3c2-c2c1cccc2C(=O)OC3 | > 100 µM (inactive) | > 100 µM (inactive) | > 100 µM (inactive) | 38.5 µM (inactive) | > 100 µM (inactive) | > 100 µM (inactive) |  | > 100 µM (inactive) | > 100 µM (inactive) |  | > 100 µM (inactive) |  | > 100 µM (inactive) | > 100 µM (inactive) |  | > 100 µM (inactive) | > 100 µM (inactive) | > 100 µM (inactive) |  | > 100 µM (inactive)
BrC1=CN2C[n+]3cc(Br)c4ccccc4c3N=C2c2ccccc21 | 11.8 µM (inactive) | 4.54 µM (inactive) | 22 µM (inactive) | 10.5 µM (inactive) | 11.7 µM (inactive) | 10.3 µM (inactive) | 10.7 µM (inactive) | 8.59 µM (inactive) | 34.9 µM (inactive) | 22 µM (inactive) | 16.7 µM (inactive) | 24.9 µM (inactive) | 7.05 µM (inactive) | 7.76 µM (inactive) | 19.7 µM (inactive) | 22.5 µM (inactive) | 6.34 µM (inactive) | 14 µM (inactive) | 4.42 µM (inactive) | 11 µM (inactive)
S=C(NCCCCCCNC(=S)Nc1c2ccccc2nc2ccccc12)Nc1c2ccccc2nc2ccccc12 | 54.5 µM (inactive) | > 91.8 µM (inactive) | > 100 µM (inactive) | 52.4 µM (inactive) | 70.1 µM (inactive) | 50.5 µM (inactive) | 63 µM (inactive) | 68.4 µM (inactive) | > 86.3 µM (inactive) | > 90.8 µM (inactive) | 89.9 µM (inactive) | > 91.8 µM (inactive) | > 81.5 µM (inactive) | 70 µM (inactive) | > 83.8 µM (inactive) | 77.1 µM (inactive) | 51.9 µM (inactive) | > 100 µM (inactive) | 49 µM (inactive) | 32.4 µM (inactive)
O=C(O)C1CCC(=O)N1S(=O)(=O)c1ccccc1 (stereo not given) | > 100 µM (inactive) | > 100 µM (inactive) | > 100 µM (inactive) | 99.1 µM (inactive) | > 100 µM (inactive) | > 100 µM (inactive) | > 100 µM (inactive) | > 100 µM (inactive) | > 100 µM (inactive) | > 100 µM (inactive) | > 100 µM (inactive) | > 100 µM (inactive) | > 100 µM (inactive) | > 100 µM (inactive) | > 100 µM (inactive) | > 100 µM (inactive) | > 100 µM (inactive) | > 100 µM (inactive) | > 100 µM (inactive) | > 100 µM (inactive)
CO/N=C(\C)c1ccc(Nc2nc3ccccc3c3occc23)cc1 | 3.03 µM (inactive) | 16.9 µM (inactive) | 15.9 µM (inactive) | 13.8 µM (inactive) | 14.2 µM (inactive) | 14.5 µM (inactive) | 16 µM (inactive) | 16.7 µM (inactive) | 18.9 µM (inactive) | 17.3 µM (inactive) | 16.7 µM (inactive) | 16 µM (inactive) | 16.1 µM (inactive) |  | 15.2 µM (inactive) | 26.5 µM (inactive) | 20.2 µM (inactive) | 16.4 µM (inactive) | 13.8 µM (inactive) | 17.1 µM (inactive)
CSCSCC(N)CO.Cc1[nH]c(=O)[nH]c(=O)c1/C=C/C(=O)O | > 625 µM (inactive) | > 625 µM (inactive) | > 625 µM (inactive) | 583 µM (inactive) | > 625 µM (inactive) | > 625 µM (inactive) | > 625 µM (inactive) | 582 µM (inactive) | > 625 µM (inactive) | > 625 µM (inactive) | 492 µM (inactive) | > 625 µM (inactive) | > 625 µM (inactive) | > 625 µM (inactive) | > 625 µM (inactive) | > 625 µM (inactive) | > 625 µM (inactive) | 624 µM (inactive) | > 625 µM (inactive) | 590 µM (inactive)
COc1ccccc1-c1cc(O)c2c(C)ccnc2n1 | 33.1 µM (inactive) |  | 23 µM (inactive) | 66.7 µM (inactive) | 30.8 µM (inactive) | 19.5 µM (inactive) | 35.6 µM (inactive) |  | 33 µM (inactive) | 47.9 µM (inactive) | 43.6 µM (inactive) | 27.6 µM (inactive) | > 100 µM (inactive) | 46.2 µM (inactive) | 41 µM (inactive) |  | 14.2 µM (inactive) | 33 µM (inactive) | 26.5 µM (inactive) | 31.7 µM (inactive)
